Test results from patent US20120014880A1, “METHOD FOR THE PREVENTION AND TREATMENT OF ESSENTIAL TREMOR BY REGULATING alpha1G T-TYPE CALCIUM CHANNEL OR BY T-TYPE CALCIUM CHANNEL BLOCKERS” (Korea Advanced Institute of Science and Technology, priority 2007, published 2012).

System: harmaline induced tremor
Test: Inhibition of harmaline induced tremor by T-type channel blockers, measured with tremor quantification apparatus
Type: in vivo, mouse
From the text: In the screening method of the present invention, symptoms of essential tremor of step 3) are involuntary, regular movements of hands, arms, head, face, vocal band, trunk or legs. The symptoms can be checked by movement artifact of electroenphalograph (EEG) or tremor quantification apparatus, but not always limited thereto. The tremor quantification apparatus herein is to detect tremor of the mouse, in which stainless test cage is hung on the support and the bottom of the cage is attached with accelerometer connected with electric wire to analog-digital converter so that the generated analog signals can be converted into digital signals recognizable by computer. Thereby, tremor of the mouse can be measured by analyzing the digital signals recognized by computer. […] When the strength of oscillation for 5 seconds under the frequency of 10-18 Hz, that is the characteristic frequency of harmaline induced tremor, was at least 65 dB, it was diagnosed as tremor and the time point of break (onset), duration, strength, and the maximum frequency were all measured and compared between the wild type mice and the transgenic mice. The method for measuring tremor is developed on the basis of described method in the following references (Long M A. et al., J. Neurosci. 2002 Dec. 15, 22(24):10898-905; Milner, T E. et al., J. Neurophysiol. 1995 June, 73(6):2568-77).
The α1G−/−transgenic mice generated in Example 1 and the wild-type mice were administered with the tremor inducing agents, oxotremorine (0.3 mg/kg), penitrem A (1.0 mg/kg) and harmaline (9 mg/kg) respectively by intraperitoneal injection to induce tremor. Tremor was investigated by using movement artifact of electroenphalograph (EEG) and tremor quantification apparatus designed by the present inventors. […] The accelerometer was connected to analog-digital converter (Digidata1320, Axon instrument Inc) by electric wire so that the generated analog signals could be converted into digital signals recognizable by computer. Thereby, tremor of the mouse was measured by analyzing the digital signals recognized by computer. The accelerometer was quipped to the test cage where the animals were located, and the test cage was hung in the air. The level of tremor of the animal was quantified by measuring the oscillation of the test cage. […] When the strength of oscillation for 5 seconds under the frequency of 10-18 Hz, that is the characteristic frequency of harmaline induced tremor, was at least 65 dB, it was diagnosed as tremor and the time point of development of tremor (onset), duration, strength, and the maximum frequency were all measured and compared between the wild type mice and the knockout mice.
The wild-type mouse (α1G+/+) was administered with 10 mg/kg of mibefradil by intraperitoneal injection 30 minutes before harmaline injection to investigate the therapeutic effect of mibefradil on harmaline induced tremor. In the meantime, osmotic pump (Model 1002, 0.25 ul/hour, Alzet) containing 20 mM of mibefradil was inserted into the brain of the wild-type mouse (α1G+/+). Two days later, the therapeutic effect on harmaline induced tremor was investigated by using the tremor quantification apparatus of Example 2.
The wild-type mice (α1G+/+) were administered with 150 mg/kg and 300 mg/kg of ethosuximide by intraperitoneal injection 30 minutes before harmaline injection to investigate the therapeutic effect of ethosuximide on harmaline induced tremor. For the investigation, the tremor quantification apparatus of Example 2 was used.

[1] = wild-type mice (α1G+/+), 300 mg/kg intraperitoneal injection 30 minutes before harmaline injection

Row | SMILES | tremor inhibiting effect on harmaline induced tremor (wild-type mice (α1G+/+), 150 mg/kg intraperitoneal injection 30 minutes before harmaline injection) | mice that did not exhibit oscillation, symptom of tremor [1] | mice that showed tremor [1] | tremor inhibiting effect on harmaline induced tremor [1] | tremor inhibiting effect on harmaline induced tremor (wild-type mouse (α1G+/+), 10 mg/kg intraperitoneal injection 30 minutes before harmaline injection) | tremor inhibiting effect on harmaline induced tremor (wild-type mouse (α1G+/+), osmotic pump containing 20 mM, 0.25 ul/hour, directly into inferior olive (IO) of the brain, two days later)
1 | CCC1(C)CC(=O)NC1=O (stereo not drawn) [ethosuximide] | tremor inhibiting effect was observed | 60% | 40% | tremor inhibiting effect was observed |  | 
2 | COCC(=O)O[C@]1(CCN(C)CCCc2nc3ccccc3[nH]2)CCc2cc(F)ccc2[C@@H]1C(C)C [mibefradil] |  |  |  |  | tremor inhibiting effect was not detected | tremor inhibiting effect was observed
